According to ChEMBL document CHEMBL1201862, “PubChem BioAssay data set” (2004):
Active and inactive are the calls of the source.

Assays:
[1] = Counterscreen for […] of the human trace amine associated receptor 1 (TAAR1): Fluorescence-based cell-based high throughput dose response assay to identify nonselective Ga16 agonists.; format: functional
[2] = target: T1, Trace amine-associated receptor 1 (Homo sapiens, UniProt Q96RJ0); assay: Fluorescence-based cell-based high throughput dose response assay to identify antagonists of the human trace amine associated receptor 1 (TAAR1).; format: functional
T1 sequence (Q96RJ0 whole entry): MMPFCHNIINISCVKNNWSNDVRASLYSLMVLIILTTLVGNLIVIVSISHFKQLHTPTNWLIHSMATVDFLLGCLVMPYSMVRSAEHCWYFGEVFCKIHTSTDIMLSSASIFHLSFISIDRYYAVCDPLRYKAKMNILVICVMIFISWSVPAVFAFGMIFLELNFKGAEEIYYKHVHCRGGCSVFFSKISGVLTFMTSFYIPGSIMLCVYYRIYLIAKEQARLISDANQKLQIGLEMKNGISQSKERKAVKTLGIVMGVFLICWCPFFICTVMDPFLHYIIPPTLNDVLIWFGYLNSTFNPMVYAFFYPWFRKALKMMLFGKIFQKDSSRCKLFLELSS

[3] = target: T1, Trace amine-associated receptor 1; assay: Counterscreen for antagonists of the human trace amine associated receptor 1 (hTAAR1): Fluorescence-based cell-based high throughput dose response assay to identify TAAR1 Agonists.; format: functional
[4] = Counterscreen for antagonists of the human trace amine associated receptor 1 (hTAAR1): Fluorescence-based cell-based high throughput dose response assay to identify nonselective Ga16 antagonists.; format: functional
[5] = target: Endoplasmic reticulum aminopeptidase 1 (Homo sapiens, UniProt Q9NZ08); assay: ERAP1 aminopeptidase inhibitors, dose response, biochemical, cherry-pick, set 2, plate reader (AID 743314)
Endoplasmic reticulum aminopeptidase 1, sequence (Q9NZ08 whole entry): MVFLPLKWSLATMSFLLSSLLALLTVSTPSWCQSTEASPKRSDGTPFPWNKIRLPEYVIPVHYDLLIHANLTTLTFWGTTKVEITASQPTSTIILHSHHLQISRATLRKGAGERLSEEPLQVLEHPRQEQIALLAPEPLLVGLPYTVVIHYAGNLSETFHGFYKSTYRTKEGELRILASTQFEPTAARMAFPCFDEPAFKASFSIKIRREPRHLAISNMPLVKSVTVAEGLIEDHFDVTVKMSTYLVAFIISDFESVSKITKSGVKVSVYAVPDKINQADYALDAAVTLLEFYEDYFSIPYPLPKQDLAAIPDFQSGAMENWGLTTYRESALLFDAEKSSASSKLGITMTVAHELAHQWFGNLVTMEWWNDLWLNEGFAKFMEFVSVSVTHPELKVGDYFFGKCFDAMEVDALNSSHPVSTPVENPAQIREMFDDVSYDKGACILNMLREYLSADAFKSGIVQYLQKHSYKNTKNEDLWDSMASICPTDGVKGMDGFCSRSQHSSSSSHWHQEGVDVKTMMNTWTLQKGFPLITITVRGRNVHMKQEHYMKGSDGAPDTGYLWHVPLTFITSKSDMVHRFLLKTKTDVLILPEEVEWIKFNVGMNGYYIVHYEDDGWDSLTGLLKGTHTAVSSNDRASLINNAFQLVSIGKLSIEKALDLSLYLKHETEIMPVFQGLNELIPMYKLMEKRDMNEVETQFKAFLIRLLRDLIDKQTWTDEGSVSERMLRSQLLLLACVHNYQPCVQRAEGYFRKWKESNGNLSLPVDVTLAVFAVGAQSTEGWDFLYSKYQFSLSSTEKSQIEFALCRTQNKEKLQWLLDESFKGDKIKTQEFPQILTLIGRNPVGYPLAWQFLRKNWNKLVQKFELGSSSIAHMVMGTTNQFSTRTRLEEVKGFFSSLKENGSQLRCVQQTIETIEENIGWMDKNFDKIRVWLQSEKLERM

[6] = NIH:OVCAR-3 ovarian cancer cell cytotoxicity, dose response, PAX8 inhibitor project, plate reader, dry powder samples (AID 743044); format: functional, cell-based
[7] = cytotoxicity in OV-90 ovarian cancer cells, dose response, PAX8 inhibitor project, cell-based, plate reader, dry powder, SA8 (AID 743149); format: functional
[8] = cytotoxicity in COV362 ovarian cancer cells, dose response, cytotoxicity control for PAX8 inhibitor project, cell-based, plate reader, dry powder, SA12 (AID 743144); format: functional
[9] = IOSE-T80 ovarian epithelial cell cytotoxicity, dose response, cytotoxicity control for PAX8 inhibitor project, plate reader, dry powder samples (AID 743045); format: functional, cell-based
[10] = cytotoxicity dependent on PAX8, dose response, cell-based, plate reader, dry powder (AID 743049); format: functional
[11] = cytotoxicity in OVCAR4 cells, dose response, cytotoxicity control for PAX8 inhibitor project, cell-based, plate reader, dry powder, SA11 (AID 743150); format: functional; conditions: OVCAR-4
[12] = IGROV1 ovarian cancer cell cytotoxicity, dose response, PAX8 inhibitor project, plate reader, dry powder samples (AID 743043); format: functional, cell-based; conditions: IGROV-1
[13] = cytotoxicity in COV434 cells, dose response, cytotoxicity control for PAX8 inhibitor project, cell-based, plate reader, dry powder, SA7 (AID 743145); format: functional
[14] = cytotoxicity in HeLa cells, dose response, cytotoxicity control, cell-based, 24 h, dry powder, set 2 (AID 651774); format: functional
Albumin = Albumin (Bos taurus, UniProt P02769); assay: Counterscreen for inhibitors of T-cell receptor (TCR)-CD3 interaction: Fluorescence-based biochemical high throughput dose response assay to identify inhibitors of T-cell receptor (TCR)-CD3 interaction using a TAMRA-labeled BSA probe.; format: functional
Albumin, sequence (P02769 whole entry): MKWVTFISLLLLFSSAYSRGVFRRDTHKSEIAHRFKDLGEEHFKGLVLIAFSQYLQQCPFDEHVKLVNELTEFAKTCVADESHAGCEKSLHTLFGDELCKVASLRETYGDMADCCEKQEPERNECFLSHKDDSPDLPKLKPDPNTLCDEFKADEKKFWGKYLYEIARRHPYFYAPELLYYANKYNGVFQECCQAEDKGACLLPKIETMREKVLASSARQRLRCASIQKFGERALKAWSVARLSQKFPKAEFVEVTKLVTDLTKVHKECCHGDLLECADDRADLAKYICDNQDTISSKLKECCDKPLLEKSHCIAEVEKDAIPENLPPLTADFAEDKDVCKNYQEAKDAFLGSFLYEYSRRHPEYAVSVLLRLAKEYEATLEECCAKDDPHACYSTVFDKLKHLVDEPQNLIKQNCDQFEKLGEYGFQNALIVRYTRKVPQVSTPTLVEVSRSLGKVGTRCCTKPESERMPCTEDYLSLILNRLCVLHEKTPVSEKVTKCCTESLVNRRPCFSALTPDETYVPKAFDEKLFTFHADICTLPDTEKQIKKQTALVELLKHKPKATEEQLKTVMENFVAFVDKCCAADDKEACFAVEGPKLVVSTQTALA

[15] = target: T2, Alkaline phosphatase, tissue-nonspecific isozyme (Homo sapiens, UniProt P05186); assay: human TNAP enzyme inhibitors, SAR follow-up, biochemical, luminescent, dose response (AID 1056)
T2 sequence (P05186 whole entry): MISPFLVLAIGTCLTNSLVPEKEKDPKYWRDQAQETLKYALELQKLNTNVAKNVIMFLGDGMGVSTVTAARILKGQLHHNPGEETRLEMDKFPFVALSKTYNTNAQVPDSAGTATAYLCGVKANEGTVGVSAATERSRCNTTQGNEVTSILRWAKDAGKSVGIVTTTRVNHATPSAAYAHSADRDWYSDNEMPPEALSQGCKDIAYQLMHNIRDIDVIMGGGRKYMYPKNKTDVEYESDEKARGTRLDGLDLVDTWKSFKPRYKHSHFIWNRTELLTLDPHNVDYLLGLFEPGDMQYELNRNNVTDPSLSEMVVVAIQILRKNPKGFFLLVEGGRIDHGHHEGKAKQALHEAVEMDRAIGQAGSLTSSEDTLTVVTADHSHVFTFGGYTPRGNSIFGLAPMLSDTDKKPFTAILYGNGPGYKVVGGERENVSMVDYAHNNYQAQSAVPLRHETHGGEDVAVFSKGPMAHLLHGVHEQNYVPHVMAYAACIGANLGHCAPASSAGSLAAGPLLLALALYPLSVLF

[16] = target: T3, RNA-editing ligase 1, mitochondrial (Trypanosoma brucei brucei, UniProt P86926); assay: TbREL1 ligase inhibitors, dose response, biochemical, fluorescence, Trypanosoma brucei (AID 1117295); format: functional
T3 sequence (P86926 whole entry): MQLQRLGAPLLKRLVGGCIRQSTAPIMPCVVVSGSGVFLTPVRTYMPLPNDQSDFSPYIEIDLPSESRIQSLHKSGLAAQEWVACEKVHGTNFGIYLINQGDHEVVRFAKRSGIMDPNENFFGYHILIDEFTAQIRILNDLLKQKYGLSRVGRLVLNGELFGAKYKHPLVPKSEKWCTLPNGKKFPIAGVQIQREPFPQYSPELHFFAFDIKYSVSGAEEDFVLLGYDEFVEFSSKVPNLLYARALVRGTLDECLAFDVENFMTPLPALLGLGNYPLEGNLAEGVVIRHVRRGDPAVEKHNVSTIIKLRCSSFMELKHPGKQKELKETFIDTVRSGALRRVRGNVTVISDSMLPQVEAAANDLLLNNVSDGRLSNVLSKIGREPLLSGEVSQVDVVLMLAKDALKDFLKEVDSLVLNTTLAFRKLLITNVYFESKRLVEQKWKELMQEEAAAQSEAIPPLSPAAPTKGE

HeLa = assay: HeLa cell cytotoxicity, dose response, cytotoxicity control, ATP luminescence, cherry-pick samples (AID 687004); format: functional, cell-based; conditions: Homo sapiens
[17] = MC4R antagonists, dose response, counter-screen for LGR2 antagonist project, cell-based, plate reader, cherry pick (AID 743444); format: functional;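 further: transfected HEK 293 cells stimulated with alpha-MSH peptide; potency of inhibitors of the alpha-MSH evoked signal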
[18] = A549 cell cytotoxicity, dose response, cytotoxicity control, plate reader, cherry-pick, antagonist series (AID 743412); format: functional, cell-based
[19] = HepG2 cell cytotoxicity, dose response, cytotoxicity control, plate reader, cherry-pick, antagonist series (AID 743416); format: functional, cell-based
[20] = LGR2 antagonists, dose response, cell-based, HEK293, CRE-luciferase reporter, cherry pick, set 2 (AID 743343); format: functional;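 further: transfected cells were stimulated with diluted bursicon conditioned medium after compound addition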
[21] = target: T4, High affinity choline transporter 1 (Homo sapiens, UniProt Q9GZV3); assay: CHT choline uptake inhibitors, dose response, cell-based, HEK-293 hCHT, [3H]-choline uptake (AID 652177); format: functional
T4 sequence (Q9GZV3 whole entry): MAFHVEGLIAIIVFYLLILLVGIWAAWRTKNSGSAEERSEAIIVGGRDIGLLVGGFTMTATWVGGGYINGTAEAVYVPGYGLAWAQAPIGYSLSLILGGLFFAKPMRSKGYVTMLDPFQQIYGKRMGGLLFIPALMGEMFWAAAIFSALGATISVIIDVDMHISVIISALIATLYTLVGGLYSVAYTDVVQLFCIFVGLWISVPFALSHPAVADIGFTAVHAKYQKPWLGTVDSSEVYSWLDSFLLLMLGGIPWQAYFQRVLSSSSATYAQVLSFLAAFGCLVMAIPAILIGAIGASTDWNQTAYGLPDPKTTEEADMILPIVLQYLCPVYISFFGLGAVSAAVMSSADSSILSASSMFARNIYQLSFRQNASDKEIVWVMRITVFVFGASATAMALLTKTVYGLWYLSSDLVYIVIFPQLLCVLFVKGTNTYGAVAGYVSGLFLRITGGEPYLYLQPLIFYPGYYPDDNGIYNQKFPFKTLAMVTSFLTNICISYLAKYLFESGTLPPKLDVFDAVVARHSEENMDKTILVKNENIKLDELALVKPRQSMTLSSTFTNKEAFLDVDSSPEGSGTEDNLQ

[22] = IRAP inhibitors, dose response, selectivity assay for ERAP1 modulator project, biochemical, Leu-AMC fluorescence, cherry-picked samples, set 2 (AID 743340)
[23] = target: T5, Oxysterols receptor LXR-beta (Homo sapiens, UniProt P55055); format: functional, cell-based;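 further: agonist activity at LXR measured by a cell-based luminescence readout across a dose range, run as a counterscreen for daf-12 agonists; HEK293 cells with Gal4-LXR fusion and GAL4-driven luciferase reporter; potency for activation of Gal4-LXR reporter so compounds are agonists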
T5 sequence (P55055 whole entry): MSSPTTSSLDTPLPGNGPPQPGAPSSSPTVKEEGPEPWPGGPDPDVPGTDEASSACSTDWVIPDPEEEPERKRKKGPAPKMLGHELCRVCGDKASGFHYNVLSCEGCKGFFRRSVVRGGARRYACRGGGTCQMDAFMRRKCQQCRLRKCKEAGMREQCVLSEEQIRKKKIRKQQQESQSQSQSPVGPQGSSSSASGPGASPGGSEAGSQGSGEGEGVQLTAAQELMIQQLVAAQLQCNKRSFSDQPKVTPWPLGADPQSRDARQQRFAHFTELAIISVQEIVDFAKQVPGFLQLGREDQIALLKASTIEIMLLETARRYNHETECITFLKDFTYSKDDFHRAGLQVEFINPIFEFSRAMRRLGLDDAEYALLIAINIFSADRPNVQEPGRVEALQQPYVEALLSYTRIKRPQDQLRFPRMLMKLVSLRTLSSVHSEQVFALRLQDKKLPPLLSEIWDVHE

H4 = assay: Luminescence Cell-Based Dose Response HTS to Identify Activators of 5'UTR Stem-Loop Driven Prion Protein mRNA Translation in H4 Neuroglioblastoma Cells. [Related pubchem assays: 1829 (Project Summary), 1814 (Primary HTS)]; format: functional; conditions: Homo sapiens
[24] = HEK293 cell cytotoxicity, dose response, cytotoxicity control, plate reader, cherry-picked samples (AID 743446); format: functional, cell-based
[25] = LGR2 antagonists, dose response, cell-based, HEK293, CRE-luciferase reporter, cherry pick (AID 743342); format: functional
Kallikrein-7 = Kallikrein-7 (Homo sapiens, UniProt P49862); assay: Fluorescence Intensity-based biochemical primary high throughput dose response assay to identify activators of kallikrein-7 (K7) zymogen.
Kallikrein-7, sequence (P49862 whole entry): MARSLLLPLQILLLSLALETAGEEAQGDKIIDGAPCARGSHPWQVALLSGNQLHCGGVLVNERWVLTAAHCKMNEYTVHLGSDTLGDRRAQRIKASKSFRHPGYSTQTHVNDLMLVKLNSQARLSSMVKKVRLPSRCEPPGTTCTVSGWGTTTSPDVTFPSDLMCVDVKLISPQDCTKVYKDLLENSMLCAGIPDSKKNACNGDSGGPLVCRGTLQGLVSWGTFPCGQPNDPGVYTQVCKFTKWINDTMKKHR

[26] = EDANS-DABCYL fluorescence interference, concentration series, dose response, artefact control for kallikrein-7 zymogen activator project, biochemical, fluorescence intensity, triplicate (AID 720493)

CC12CC(c3ccccc3O1)C(C(=O)OCc1ccccc1)C(=O)N2 (stereo not drawn)
AC50 (cells): 151 nM (active)

COC(=O)c1oc2c(c1C)C1(CCC2)SCCS1
EC50 [1]: > 29.9 µM (inactive) | IC50 [2]: 1.09 µM (active) | EC50 [3]: > 29.9 µM (inactive) | IC50 [4]: > 29.9 µM (inactive)

CC(C)(C)c1cc(N2CCOCC2)n2ncc(-c3ccccc3)c2n1
AC50 [5]: 14.2 µM (active)

O=C(CCCN1C(=O)/C(=C\c2cccc(Br)c2)SC1=S)Nc1ccccn1
AC50 [6]: 18.9 µM (active) | AC50 [7]: 36.8 µM (active) | AC50 [8]: 46.2 µM (active) | AC50 [9]: 68.5 µM (active) | AC50 [10]: 17.6 µM (active) | AC50 [11]: 42.7 µM (active) | AC50 [12]: 14.8 µM (active) | AC50 [13]: 49.7 µM (active)

c1ccc(-c2ccc(CCNC3CCCC3)cc2)cc1
AC50 [14]: > 70 µM (inactive)

Cc1nc2ccccc2n1CC(=O)c1ccc(O)c(O)c1
IC50 (Albumin): > 94 µM (inactive) | IC50 [15]: 20.2 µM (active) | IC50 [16]: > 96.6 µM (inactive)

C[C@H](CO)N1C[C@H](C)[C@H](CN(C)Cc2ccccc2)Oc2cc(C#Cc3ccccn3)ccc2S1(=O)=O
AC50 (HeLa): > 52 µM (inactive)

Cc1ccc2nc(-c3ccccc3)nn2c1
AC50 [17]: 3.56 µM (active) | AC50 [18]: > 52 µM (inactive) | AC50 [19]: > 52 µM (inactive) | AC50 [20]: 2.48 µM (active)

COc1ccc(C(=O)NCc2csc(C)n2)cc1OC1CCN(C(C)C)CC1
IC50 [21]: 6.18 µM (active)

COc1ccc(CN(C)C[C@@H]2OCCCC[C@@H](C)Oc3ccc(NS(=O)(=O)c4c(C)noc4C)cc3C(=O)N([C@@H](C)CO)C[C@@H]2C)cc1
AC50 [22]: 16.2 µM (active)

COC(=O)C1C(=O)c2c([nH]c(C(=O)OC3CCCCC3)c2C)CC1C (stereo not drawn)
EC50 [23]: > 67.5 µM (inactive) | EC50 (H4): 8.72 µM (active)

COc1ccc(S(=O)(=O)N(C)C[C@@H]2OCCCC[C@H](C)Oc3ccc(NS(=O)(=O)c4ccc(Cl)cc4)cc3C(=O)N([C@@H](C)CO)C[C@@H]2C)cc1
AC50 [17]: 4.58 µM (active) | AC50 [24]: 28.5 µM (active) | AC50 [18]: 5.98 µM (active) | AC50 [25]: 3.79 µM (active)

CC1Nc2ccccc2C(=O)N1NS(C)(=O)=O (stereo not drawn)
EC50 (Kallikrein-7): 10.3 µM (inactive) | EC50 [26]: > 7.73 µM (active)
